# Source: patent publication US9751919B2, “Antimicrobial compositions comprising a hyaluronic acid binding peptide and a β-lactam antibiotic” (priority 2012, dated 2017)
# Where “and” joins values, the source holds several entries; their conditions need not be identical. Equal values may be shown once. Entries after “also recorded” stand apart in the source; their conditions may differ. Marks after values point to notes of the source that are not given here.
# Tests used:
# P. aeruginosa = test: Checkerboard assay (FIC index); format: cell-based, Pseudomonas aeruginosa; conditions: antibiotic combined with PEP35
# Protocol: (§1) The checkerboard assays were carried out as described by Eliopoulos and Moellering (Chapter 9) in Antibiotic in Laboratory Medicine, Lorian Ed. 1996 as well as Bonapace et al. Diagnostic Microbiology and Infectious Diseases 2002; 44:363-366 and Bonapace et al. Diagnostic Microbiology and Infectious Diseases 2000; 38:43-50. In brief, checkerboard assays were performed in 96 well microtitre trays using an 8-by-8 well configuration. […] 96-well custom designed microtitre plates contained 100 ul/well of cation adjusted Mueller-Hinton broth (eg. for Enterobacteriaceae) with or without lysed horse blood (2-5% V/V) [eg. for S. pneumoniae] and were inoculated to achieve a final concentration of approximately 5×10^5 CFU/ml and incubated in ambient air for 24 hours prior to reading. Colony counts were performed periodically to confirm inocula. Quality control was performed every two weeks using a variety of ATCC QC organisms including; S. pneumoniae 49619, S. aureus 29213, E. faecalis 29212, E. coli 25922 and P. aeruginosa 27853. For all antimicrobials as well as PEP35, CLSI criteria was used.
# (§2) The fractional inhibitory concentration index (FIC index) was used to interpret synergy, antagonism or additivity/indifference. FIC index=FIC of drug A+FIC of drug B where:
# (§3) The FIC of drug A and drug B is calculated as follows, FIC drug A=MIC of drug A in combination/MIC of drug A alone and FIC of drug B=MIC of drug B in combination/MIC of drug B alone. Synergy is defined as FIC index ≦0.5, additivity/indifference FIC >0.5-4 and antagonism FIC index >4.
# (§4) Antimicrobials used included PEP35, cefazolin, ceftriaxone, vancomycin, linezolid, tigecycline and daptomycin versus Gram-positive cocci and PEP35, gentamicin, levofloxacin, piperacillin/tazobactam, meropenem and colistin (Polymyxin E) versus Gram-negative bacilli. These agents were obtained as laboratory grade powders from their respective manufacturers. Stock solutions were prepared and dilutions made as described by the Clinical Laboratory Standards Institute (2005 CLSI).
# (§5) Organisms included Gram-positive cocci (2 strains of each): Methicillin-susceptible Staphylococcus aureus (MSSA), community-associated (CA) and healthcare-associated (HA) methicillin-resistant Staphylococcus aureus (MRSA), vancomycin-intermediate Staphylococcus aureus (VISA), vancomycin-resistant Staphylococcus aureus (VRSA), methicillin-resistant Staphylococcus epidermidis (MRSE), Streptococcus pyogenes, Streptococcus agalactiae, Streptococcus pneumoniae, Enterococcus faecalis, Enterococcus faecium and vancomycin-resistant enterococcus (VRE). Gram-negative bacilli tested (2 strains of each) included: E. coli, Pseudomonas aeruginosa, Klebsiella pneumoniae, K. oxytoca, Enterobacter cloacae, P. mirabilis and Stenotrophomonas maltophilia. MIC testing, following two subcultures from frozen stock were determined by the CLSI 2005 approved broth microdilution method.
# E. coli [1] = test: Checkerboard assay (FIC index); format: cell-based, Escherichia coli; conditions: antibiotic combined with PEP35
# Protocol: (§6) Checkerboard assays were carried out as described by Bonapace et al.
# as §1, with “Diagnostic” for “The checkerboard assays were carried out as described by Eliopoulos and Moellering (Chapter 9) in Antibiotic in Laboratory Medicine, Lorian Ed. 1996 as well as Bonapace et al. Diagnostic”, “2002; 44:363-366.” for “2002; 44:363-366 and Bonapace et al. Diagnostic Microbiology and Infectious Diseases 2000; 38:43-50.”, “27853. […] All peptides were assessed for synergy with β-lactams and vancomycin.” for “27853.”, “as the peptides,” for “as PEP35,”, “criteria were” for “criteria was”
# as §2
# as §3, with “was” for “is”, “additivity/indifference defined as a” for “additivity/indifference”, “between 0.5 and 4” for “>0.5-4”, “antagonism defined as an” for “antagonism”
# as §1, §3, §4
# Organisms included Gram-positive cocci (2 strains of each): Methicillin-susceptible Staphylococcus aureus (MSSA), community-associated (CA) and healthcare-associated (HA) methicillin-resistant Staphylococcus aureus (MRSA), vancomycin-intermediate Staphylococcus aureus (VISA), vancomycin-resistant Staphylococcus aureus (VRSA), methicillin-resistant Staphylococcus epidermidis (MRSE), Streptococcus pyogenes, Streptococcus agalactiae, Streptococcus pneumoniae, Enterococcus faecalis, Enterococcus faecium and vancomycin-resistant enterococcus (VRE). […]
# P. mirabilis [2] = test: Checkerboard assay (FIC index); format: cell-based, Proteus mirabilis; conditions: antibiotic combined with PEP35
# Protocol: as §1, §2, §3, §4, §5
# K. pneumoniae = test: Checkerboard assay (FIC index); format: cell-based, Klebsiella pneumoniae; conditions: antibiotic combined with PEP35
# Protocol: as §1, §2, §3, §4, §5
# K. oxytoca = test: Checkerboard assay (FIC index); format: cell-based, Klebsiella oxytoca; conditions: antibiotic combined with PEP35
# Protocol: as §1, §2, §3, §4, §5
# S. maltophilia = test: Checkerboard assay (FIC index); format: cell-based, Stenotrophomonas maltophilia; conditions: antibiotic combined with PEP35
# Protocol: as §1, §2, §3, §4, §5
# E. cloacae = test: Checkerboard assay (FIC index); format: cell-based, Enterobacter cloacae; conditions: antibiotic combined with PEP35
# Protocol: as §1, §2, §3, §4, §5
# P. mirabilis [3] = test: MIC, agent alone (broth microdilution); format: cell-based, Proteus mirabilis; conditions: footnote to Table 12; P. mirabilis 80267 and 81569
# From the text: as §5
# E. coli [4] = test: MIC (CLSI broth dilution), agent alone; format: cell-based, Escherichia coli; conditions: E. coli 69716; agent alone
# Protocol: (§7) VISA (strains 92, 95 and 96), VRSA (strains 105 and 106) and E. coli (strain 69717) isolates were also tested. One MSSA was used as a control. All MICs were assessed using CLSI guidelines. Also assessed was the activity of cefazolin, ceftriazone, meropenem, and a piperacillin/tazobactam combination antibiotic. Minimum inhibitory concentration (MIC) is the lowest concentration of an antimicrobial that will inhibit the visible growth of a microorganism after incubation.
# (§8) Antimicrobial Susceptibility Testing: A custom designed panel of antimicrobials was created. The panel included: PEP35, penicillin, piperacillin/tazobactam, cefazolin, ceftriaxone, meropenem, clarithromycin, clindamycin, gentamicin, amikacin, vancomycin, ciprofloxacin, levofloxacin, moxifloxacin, linezolid, trimethoprim/sulfamethoxazole and doxycycline. These agents were obtained as laboratory grade powders from their respective manufacturers. Stock solutions were prepared and dilutions made as described by the Clinical Laboratory Standards Institute (2005 CLSI). Following two subcultures from frozen stock the MICs of the antimicrobial agents for the isolates were determined by the CLSI 2005 approved broth macrodilution method. Briefly, test tubes containing doubling antibiotic dilutions (2 ml per tube) of cation adjusted Mueller-Hinton broth (eg. for Enterobacteriaceae) with or without lysed horse blood (2-5% V/V) [eg. for S. pneumoniae] were inoculated to achieve a final concentration of approximately 5×10^5 CFU/ml and incubated in ambient air for 24 hours prior to reading. Colony counts were performed periodically to confirm inocula. Quality control was performed every two weeks using a variety of ATCC QC organisms including; S. aureus 29213, E. faecalis 29212, E. coli 25922 and P. aeruginosa 27853. For all antimicrobials as well as PEP35, CLSI criteria were used.
# (§9) One MS SA and ATCC reference strains were used as controls. All MICs were assessed using CLSI guidelines.
# CA-MRSA = test: MIC (CLSI broth dilution), agent alone; format: cell-based, Staphylococcus aureus; conditions: agent alone, in µg/mL
# Protocol: as §7
# as §8, with “The panel included: PEP35, penicillin, piperacillin/tazobactam, cefazolin, ceftriaxone, meropenem, clarithromycin, clindamycin, gentamicin, amikacin, vancomycin, ciprofloxacin, levofloxacin, moxifloxacin, linezolid, trimethoprim/sulfamethoxazole and doxycycline.” left out, “27853.” for “27853. For all antimicrobials as well as PEP35, CLSI criteria were used.”
# (§10) One MSSA was used as a control. All MICs were assessed using CLSI guidelines.
# as §9
# HA-MRSA = test: MIC (CLSI broth dilution), agent alone; format: cell-based, Staphylococcus aureus; conditions: agent alone
# Protocol: as §7
# as §8, with “The panel included: PEP35, penicillin, piperacillin/tazobactam, cefazolin, ceftriaxone, meropenem, clarithromycin, clindamycin, gentamicin, amikacin, vancomycin, ciprofloxacin, levofloxacin, moxifloxacin, linezolid, trimethoprim/sulfamethoxazole and doxycycline.” left out, “27853.” for “27853. For all antimicrobials as well as PEP35, CLSI criteria were used.”
# as §10, §9
# [5] = test system: MRSA, VISA, VRSA and E. coli; test: MIC, agent alone, panel statement; format: cell-based; conditions: versus MRSA, VISA, VRSA and E. coli
# Protocol: as §7, §8
# VISA = test: MIC (CLSI broth dilution), agent alone; format: cell-based, Staphylococcus aureus; set-up: unit: µg/mL
# Protocol: as §7, §8, §10
# [6] = test system: MRSA, VISA, VRSA and E. coli; test: Checkerboard assay, panel statement; format: cell-based; conditions: with β-lactams versus MRSA, VISA, VRSA and E. coli
# Protocol: as §6
# as §1, with “Diagnostic” for “The checkerboard assays were carried out as described by Eliopoulos and Moellering (Chapter 9) in Antibiotic in Laboratory Medicine, Lorian Ed. 1996 as well as Bonapace et al. Diagnostic”, “2002; 44:363-366.” for “2002; 44:363-366 and Bonapace et al. Diagnostic Microbiology and Infectious Diseases 2000; 38:43-50.”, “27853. […] All peptides were assessed for synergy with β-lactams and vancomycin.” for “27853.”, “as the peptides,” for “as PEP35,”, “criteria were” for “criteria was”
# as §2
# as §3, with “was” for “is”, “additivity/indifference defined as a” for “additivity/indifference”, “between 0.5 and 4” for “>0.5-4”, “antagonism defined as an” for “antagonism”
# The fractional inhibitory concentration index (FIC index) was used to interpret synergy, antagonism or additivity/indifference. FIC index=FIC of drug A+FIC of drug B where the FIC of drug A and drug B was calculated as follows, FIC drug A=MIC of drug A in combination/MIC of drug A alone and FIC of drug B=MIC of drug B in combination/MIC of drug B alone. Synergy was defined as FIC index ≦0.5, additivity/indifference defined as an FIC of between 0.5 and 4 and antagonism defined as an FIC index >4.
# VRSA = test: MIC (CLSI broth dilution), agent alone; format: cell-based, Staphylococcus aureus; set-up: unit not given beside the values
# Protocol: as §7, §8, §10
Compound,Avg ΣFIC (range) (P. aeruginosa; P. aeruginosa 70849),Avg ΣFIC (range) (P. aeruginosa; P. aeruginosa 71841),Avg ΣFIC (range) (E. coli [1]; E. coli 69716),Avg ΣFIC (range) (E. coli [1]; E. coli 70752),Avg ΣFIC (range) (P. mirabilis [2]; P. mirabilis 80267),Avg ΣFIC (range) (P. mirabilis [2]; P. mirabilis 81569),Avg ΣFIC (range) (K. pneumoniae; K. pneumoniae 70508),Avg ΣFIC (range) (K. pneumoniae; K. pneumoniae 77081),Avg ΣFIC (range) (K. oxytoca; K. oxytoca 75316),Avg ΣFIC (range) (K. oxytoca; K. oxytoca 76874),Avg ΣFIC (range) (S. maltophilia; S. maltophilia 73062),Avg ΣFIC (range) (E. cloacae; E. cloacae 80194),Avg ΣFIC (range) (E. cloacae; E. cloacae 83128),Avg ΣFIC (range) (S. maltophilia; S. maltophilia 77424),other results
colistin (Polymyxin E),0.70 (0.28-1.12),0.89 (0.53-1.25),0.71 (0.31-1.06),0.81 (0.31-1.25),>1**,>1**,0.67 (0.31-1.06),0.61 (0.18-1.06),0.41 (0.24-0.56) and 0.62 (0.18-1.06) and 0.65 (0.18-1.12),0.83 (0.31-2.03),0.88 (0.53-1.25),0.70 (0.31-1.12),0.77 (0.5-1.06),,MIC (P. mirabilis [3]): COL MIC > 4096
gentamicin,1.11 (1.03-1.25),1.05 (0.75-1.25),1.4 (1.06-2.12),1.05 (0.75-1.25),>1*,>1*,1.13 (1.0-1.25),0.89 (0.56-1.25),1.24 (0.75-2.12),1.10 (0.75-2.06),1.4 (0.62-2.25),1.4 (0.5-2.12),1.05 (0.75-1.25),1.99 (1.0-4.25) and 1.98 (1.06-4.25),
"C[C@H]1COc2c(N3CCN(C)CC3)c(F)cc3c(=O)c(C(=O)O)cn1c23 [Levofloxacin, levofloxacin]",1.21 (1.03-1.5),1.13 (1.0-1.25),0.93 (0.56-1.12),1.13 (0.75-1.12),>1*,>1*,0.97 (0.75-1.12),1.14 (1.06-1.25),0.88 (0.53-1.25),0.94 (0.62-1.12),1.21 (1.03-1.5),1.13 (1.0-1.25),0.98 (0.75-1.12),0.94 (0.62-1.12),
GAHWQFNALTVRGGGS (Laboratory designed HA inhibitor peptide) [PEP-52],,,,,,,,,,,,,,,"MIC (E. coli [4]): > 512 and > 1024; MIC (CA-MRSA; CA-MRSA 69615 (USA400)): > 512 and 1024; MIC (CA-MRSA; CA-MRSA 70857 (USA400)): > 512 and 1024; MIC (HA-MRSA; HA-MRSA 70798 (USA100/800)): > 512 and > 1024; MIC (HA-MRSA; HA-MRSA 77090 (USA100/800), in µg/mL): > 512 and 1024; activity (in words) [5]: no activity; also recorded: not active; MIC (VISA; VISA 92, in µg/mL): > 512 and 1024; MIC (VISA; VISA 95, in µg/mL): > 512 and 1024; MIC (VISA; VISA 96, in µg/mL): > 512 and 1024; synergistic activity (in words) [6]: no synergistic activity; MIC (VRSA; VRSA 105): > 512 and > 1024; MIC (VRSA; VRSA 106): > 512 and > 1024"
